Reference: patent publication US7964219B2, “Pharmaceutical compositions for controlled release delivery of biologically active compounds” (QPS, LLC, priority 2004, dated 2011)

Assays:
[1] = Stability of octreotide in injectable formulations at room temperature by HPLC (Example 12)
Protocol: Injectable formulations of octreotide were prepared by dispersing octreotide in polymer solution in an appropriate solvent. […] The mixture was thoroughly mixed until a uniform suspension or solution was obtained. Six injectable formulations were prepared as shown below.
The stability of octreotide in the above injectable formulations at room temperature was monitored by HPLC and the results are shown in the table below.

[2] = Release of octreotide in vivo in rats by implant retrieval (Example 14); design: species or system Sprague-Dawley male rats; conditions: PLGA/NMP vehicle, after 24 h
Protocol: Poly(DL-lactide-co-glycolide) (PLGA) was dissolved in N-methyl-2-pyrrolidone (NMP), or methoxypolyethylene glycohol (mPEG) to give a 40% solution by weight. The injectable formulations were prepared by dispersing octreotide phytate or acetate. The mixture was thoroughly mixed until a uniform suspension or solution was obtained. These formulations of octreotide (roughly about 100 uL) were administered subcutaneously in the back of the Sprague-Dawley male rats. The release of octreotide was determined by implant retrieval at predefined time intervals (30 min for group G and 24 h for groups A through F) after ministration and analysis of the octreotide remaining in the implant.

[3] = Stability of octreotide in injectable formulations at room temperature by HPLC (Example 13); format: physicochemical; conditions: PLGA/NMP vehicle, after 24 h
Protocol: The injectable polymer solutions were prepared by dispersing octreotide phytate or acetate or citrate. […] Injectable formulations were prepared as shown below.
It appears that both salt forms of octreotide and the solvent affect the stability of octreotide. In terms of the stability of octreotide, mPEG is preferred than NMP and phytate complex form of octreotide is preferred than acetate and citrate salt of octreotide.

Row | Structure (SMILES) | octreotide degraded or acylated ([1]; PLGA solution in NMP, room temperature) | Stability of octreotide (degraded or reacted) ([1]; after three days at room temperature) | degradation/reaction of octreotide in vivo [2] | degradation/reaction of octreotide in vitro [3]
1 | C[C@@H](O)[C@@H]1NC(=O)[C@H](CCCCN)NC(=O)[C@@H](Cc2c[nH]c3ccccc23)NC(=O)[C@H](Cc2ccccc2)NC(=O)[C@@H](NC(=O)[C@H](N)Cc2ccccc2)CSSC[C@@H](C(=O)N[C@H](CO)[C@@H](C)O)NC1=O [octreotide acetate] | ~100% | significant amount of the octreotide was degraded or reacted |  | 
2 | C[C@@H](O)[C@@H]1NC(=O)[C@H](CCCCN)NC(=O)[C@@H](Cc2c[nH]c3ccccc23)NC(=O)[C@H](Cc2ccccc2)NC(=O)[C@@H](NC(=O)[C@H](N)Cc2ccccc2)CSSC[C@@H](C(=O)N[C@H](CO)[C@@H](C)O)NC1=O [octreotide] |  |  | 30% | 85%
